{"source": "the NIST ThermoML archive (doi:10.1021/je034087q)", "experiment": "xn = mol fraction of the nth substance listed", "conditions": "Fluid (supercritical or subcritical phases), x2 = 0.901", "note": "± gives the expanded uncertainty stated by the source."}
{"smiles": "CCCCC", "note": "[pentane] + O=C=O", "values": [{"measurement": "mass density", "setting": "326.15 K, 8540 kPa", "value": "461 ± 3", "unit": "kg/m3"}, {"measurement": "mass density", "setting": "326.15 K, 8560 kPa", "value": "465 ± 3", "unit": "kg/m3"}, {"measurement": "mass density", "setting": "326.15 K, 8580 kPa", "value": "469 ± 3", "unit": "kg/m3"}, {"measurement": "mass density", "setting": "326.15 K, 8610 kPa", "value": "472 ± 3", "unit": "kg/m3"}, {"measurement": "mass density", "setting": "326.15 K, 8630 kPa", "value": "476 ± 3", "unit": "kg/m3"}, {"measurement": "mass density", "setting": "326.15 K, 8670 kPa", "value": "481 ± 3", "unit": "kg/m3"}, {"measurement": "mass density", "setting": "326.15 K, 8700 kPa", "value": "486 ± 3", "unit": "kg/m3"}, {"measurement": "mass density", "setting": "326.15 K, 8740 kPa", "value": "491 ± 3", "unit": "kg/m3"}, {"measurement": "mass density", "setting": "326.15 K, 8780 kPa", "value": "496 ± 3", "unit": "kg/m3"}, {"measurement": "mass density", "setting": "326.15 K, 8840 kPa", "value": "503 ± 3", "unit": "kg/m3"}, {"measurement": "mass density", "setting": "326.15 K, 8870 kPa", "value": "509 ± 3", "unit": "kg/m3"}, {"measurement": "mass density", "setting": "326.15 K, 8920 kPa", "value": "516 ± 3", "unit": "kg/m3"}, {"measurement": "mass density", "setting": "326.15 K, 8970 kPa", "value": "520 ± 3", "unit": "kg/m3"}, {"measurement": "mass density", "setting": "326.15 K, 9010 kPa", "value": "524 ± 3", "unit": "kg/m3"}, {"measurement": "mass density", "setting": "326.15 K, 9080 kPa", "value": "531 ± 3", "unit": "kg/m3"}, {"measurement": "mass density", "setting": "326.15 K, 9160 kPa", "value": "538 ± 3", "unit": "kg/m3"}, {"measurement": "mass density", "setting": "326.15 K, 9220 kPa", "value": "544 ± 3", "unit": "kg/m3"}, {"measurement": "mass density", "setting": "326.15 K, 9350 kPa", "value": "551 ± 3", "unit": "kg/m3"}, {"measurement": "mass density", "setting": "326.15 K, 9420 kPa", "value": "558 ± 4", "unit": "kg/m3"}, {"measurement": "mass density", "setting": "326.15 K, 9500 kPa", "value": "562 ± 4", "unit": "kg/m3"}, {"measurement": "mass density", "setting": "326.15 K, 9560 kPa", "value": "567 ± 4", "unit": "kg/m3"}, {"measurement": "mass density", "setting": "326.15 K, 9680 kPa", "value": "573 ± 4", "unit": "kg/m3"}, {"measurement": "mass density", "setting": "326.15 K, 9760 kPa", "value": "579 ± 4", "unit": "kg/m3"}, {"measurement": "mass density", "setting": "326.15 K, 9870 kPa", "value": "583 ± 4", "unit": "kg/m3"}, {"measurement": "mass density", "setting": "326.15 K, 9990 kPa", "value": "590 ± 4", "unit": "kg/m3"}, {"measurement": "mass density", "setting": "326.15 K, 10130 kPa", "value": "595 ± 4", "unit": "kg/m3"}, {"measurement": "mass density", "setting": "326.15 K, 10250 kPa", "value": "601 ± 4", "unit": "kg/m3"}, {"measurement": "mass density", "setting": "326.15 K, 10410 kPa", "value": "608 ± 4", "unit": "kg/m3"}, {"measurement": "mass density", "setting": "326.15 K, 10720 kPa", "value": "618 ± 4", "unit": "kg/m3"}, {"measurement": "mass density", "setting": "326.15 K, 10920 kPa", "value": "625 ± 4", "unit": "kg/m3"}, {"measurement": "mass density", "setting": "326.15 K, 11150 kPa", "value": "631 ± 4", "unit": "kg/m3"}, {"measurement": "mass density", "setting": "326.15 K, 11380 kPa", "value": "638 ± 4", "unit": "kg/m3"}, {"measurement": "mass density", "setting": "326.15 K, 11660 kPa", "value": "645 ± 4", "unit": "kg/m3"}, {"measurement": "mass density", "setting": "326.15 K, 11950 kPa", "value": "652 ± 4", "unit": "kg/m3"}, {"measurement": "mass density", "setting": "326.15 K, 12280 kPa", "value": "658 ± 4", "unit": "kg/m3"}, {"measurement": "mass density", "setting": "326.15 K, 12630 kPa", "value": "666 ± 4", "unit": "kg/m3"}, {"measurement": "mass density", "setting": "326.15 K, 13030 kPa", "value": "673 ± 4", "unit": "kg/m3"}, {"measurement": "mass density", "setting": "326.15 K, 13480 kPa", "value": "680 ± 4", "unit": "kg/m3"}, {"measurement": "mass density", "setting": "326.15 K, 13950 kPa", "value": "686 ± 4", "unit": "kg/m3"}, {"measurement": "mass density", "setting": "326.15 K, 14540 kPa", "value": "696 ± 4", "unit": "kg/m3"}, {"measurement": "mass density", "setting": "326.15 K, 14800 kPa", "value": "700 ± 4", "unit": "kg/m3"}, {"measurement": "mass density", "setting": "328.15 K, 8650 kPa", "value": "431 ± 3", "unit": "kg/m3"}, {"measurement": "mass density", "setting": "328.15 K, 8690 kPa", "value": "436 ± 3", "unit": "kg/m3"}, {"measurement": "mass density", "setting": "328.15 K, 8720 kPa", "value": "442 ± 3", "unit": "kg/m3"}, {"measurement": "mass density", "setting": "328.15 K, 8760 kPa", "value": "448 ± 3", "unit": "kg/m3"}, {"measurement": "mass density", "setting": "328.15 K, 8830 kPa", "value": "459 ± 3", "unit": "kg/m3"}, {"measurement": "mass density", "setting": "328.15 K, 8880 kPa", "value": "465 ± 3", "unit": "kg/m3"}, {"measurement": "mass density", "setting": "328.15 K, 8930 kPa", "value": "473 ± 3", "unit": "kg/m3"}, {"measurement": "mass density", "setting": "328.15 K, 8970 kPa", "value": "475 ± 3", "unit": "kg/m3"}, {"measurement": "mass density", "setting": "328.15 K, 9030 kPa", "value": "483 ± 3", "unit": "kg/m3"}, {"measurement": "mass density", "setting": "328.15 K, 9100 kPa", "value": "491 ± 3", "unit": "kg/m3"}, {"measurement": "mass density", "setting": "328.15 K, 9160 kPa", "value": "499 ± 3", "unit": "kg/m3"}, {"measurement": "mass density", "setting": "328.15 K, 9230 kPa", "value": "507 ± 3", "unit": "kg/m3"}, {"measurement": "mass density", "setting": "328.15 K, 9320 kPa", "value": "517 ± 3", "unit": "kg/m3"}, {"measurement": "mass density", "setting": "328.15 K, 9410 kPa", "value": "524 ± 3", "unit": "kg/m3"}, {"measurement": "mass density", "setting": "328.15 K, 9530 kPa", "value": "533 ± 3", "unit": "kg/m3"}, {"measurement": "mass density", "setting": "328.15 K, 9630 kPa", "value": "542 ± 3", "unit": "kg/m3"}, {"measurement": "mass density", "setting": "328.15 K, 9760 kPa", "value": "552 ± 3", "unit": "kg/m3"}, {"measurement": "mass density", "setting": "328.15 K, 9930 kPa", "value": "562 ± 4", "unit": "kg/m3"}, {"measurement": "mass density", "setting": "328.15 K, 10030 kPa", "value": "568 ± 4", "unit": "kg/m3"}, {"measurement": "mass density", "setting": "328.15 K, 10130 kPa", "value": "572 ± 4", "unit": "kg/m3"}, {"measurement": "mass density", "setting": "328.15 K, 10230 kPa", "value": "579 ± 4", "unit": "kg/m3"}, {"measurement": "mass density", "setting": "328.15 K, 10350 kPa", "value": "584 ± 4", "unit": "kg/m3"}, {"measurement": "mass density", "setting": "328.15 K, 10380 kPa", "value": "586 ± 4", "unit": "kg/m3"}, {"measurement": "mass density", "setting": "328.15 K, 10490 kPa", "value": "590 ± 4", "unit": "kg/m3"}, {"measurement": "mass density", "setting": "328.15 K, 10580 kPa", "value": "594 ± 4", "unit": "kg/m3"}, {"measurement": "mass density", "setting": "328.15 K, 10750 kPa", "value": "601 ± 4", "unit": "kg/m3"}, {"measurement": "mass density", "setting": "328.15 K, 10880 kPa", "value": "606 ± 4", "unit": "kg/m3"}, {"measurement": "mass density", "setting": "328.15 K, 11060 kPa", "value": "612 ± 4", "unit": "kg/m3"}, {"measurement": "mass density", "setting": "328.15 K, 11140 kPa", "value": "614 ± 4", "unit": "kg/m3"}, {"measurement": "mass density", "setting": "328.15 K, 11500 kPa", "value": "625 ± 4", "unit": "kg/m3"}, {"measurement": "mass density", "setting": "328.15 K, 11670 kPa", "value": "629 ± 4", "unit": "kg/m3"}, {"measurement": "mass density", "setting": "328.15 K, 11800 kPa", "value": "634 ± 4", "unit": "kg/m3"}, {"measurement": "mass density", "setting": "328.15 K, 11970 kPa", "value": "639 ± 4", "unit": "kg/m3"}, {"measurement": "mass density", "setting": "328.15 K, 12180 kPa", "value": "642 ± 4", "unit": "kg/m3"}, {"measurement": "mass density", "setting": "328.15 K, 12340 kPa", "value": "646 ± 4", "unit": "kg/m3"}, {"measurement": "mass density", "setting": "328.15 K, 12560 kPa", "value": "652 ± 4", "unit": "kg/m3"}, {"measurement": "mass density", "setting": "328.15 K, 12760 kPa", "value": "655 ± 4", "unit": "kg/m3"}, {"measurement": "mass density", "setting": "328.15 K, 13020 kPa", "value": "661 ± 4", "unit": "kg/m3"}, {"measurement": "mass density", "setting": "328.15 K, 13280 kPa", "value": "665 ± 4", "unit": "kg/m3"}, {"measurement": "mass density", "setting": "328.15 K, 13560 kPa", "value": "669 ± 4", "unit": "kg/m3"}, {"measurement": "mass density", "setting": "328.15 K, 13790 kPa", "value": "674 ± 4", "unit": "kg/m3"}, {"measurement": "mass density", "setting": "328.15 K, 14260 kPa", "value": "682 ± 4", "unit": "kg/m3"}, {"measurement": "mass density", "setting": "328.15 K, 14810 kPa", "value": "691 ± 4", "unit": "kg/m3"}]}
